From patent publication US20220313656A1, “NEW CLASS OF ANTIBIOTICS HAVING LOW MIC-VALUES TOWARDS DIFFERENT STRAINS OF BACTERIA” (priority 2019, published 2022)

Key:
[1] = tested on: Staphylococus pseudintermedius; assay: MIC, serial dilution method (CLSI); format: cell-based, Staphylococcus pseudintermedius; conditions: Staphylococcus pseudintermedius, 24 h; read-out: MIC
Outline: (§1)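 Each determination was run twice. Bacteria, diluted 1:100 in Müller Hinton broth, were exposed to compound for 24 hours at 37° C without agitation, and the lowest concentration free of visible growth was recorded.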

E. coli APEC O2 = assay: MIC, serial dilution method (CLSI); format: cell-based, Escherichia coli; conditions: Escherichia coli, APECO2, 24 h; read-out: MIC
Outline: as §1

E. faecium = assay: MIC, serial dilution method (CLSI); format: cell-based, Enterococcus faecium; conditions: Enterococcus faecium, 24 h; read-out: MIC
Outline: as §1

S. aureus CC398 = assay: MIC, serial dilution method (CLSI); format: cell-based, Staphylococcus aureus; conditions: Staphylococcus aureus, MRSA, 24 h; read-out: MIC
Outline: as §1

S. aureus USA300 = assay: MIC, serial dilution method (CLSI); format: cell-based, Staphylococcus aureus; conditions: Staphylococcus aureus, USA300, 24 h; read-out: MIC
Outline: as §1

E. faecalis = assay: MIC, serial dilution method (CLSI); format: cell-based, Enterococcus faecalis; conditions: Enterococcus faecalis, 24 h; read-out: MIC
Outline: as §1

Escherichia coli E5 = assay: MIC, serial dilution method (CLSI); also: values in mg/L; format: cell-based; conditions: E. coli E5, ESBL; duplicates a/b
Outline: as §1

Bacillus cereus = assay: MIC, serial dilution method (CLSI); format: cell-based; conditions: 24 h, read-out: MIC
Outline: as §1

Escherichia coli ESBL28 = assay: MIC, serial dilution method (CLSI); also: values in mg/L; format: cell-based; conditions: E. coli ESBL28, Tetracycline resistant; duplicates a/b
Outline: as §1

Escherichia coli E24 = assay: MIC, serial dilution method (CLSI); also: values in mg/L; format: cell-based; conditions: E. coli E24, ESBL; duplicates a/b
Outline: as §1

Listeria monocytogenes = assay: MIC, serial dilution method (CLSI); format: cell-based; conditions: 24 h, read-out: MIC
Outline: as §1

Escherichia coli ESBL19 = assay: MIC, serial dilution method (CLSI); also: values in mg/L; format: cell-based; conditions: E. coli ESBL19, Tetracycline resistant; duplicates a/b
Outline: as §1

Escherichia coli ESBL37 = assay: MIC, serial dilution method (CLSI); also: values in mg/L; format: cell-based; conditions: E. coli ESBL37, Tetracycline resistant; duplicates a/b
Outline: as §1

Salmonella enteritidis = assay: MIC, serial dilution method (CLSI); format: cell-based; conditions: Salmonella enterica, ENTERITIDIS, 24 h; read-out: MIC
Outline: as §1

Escherichia coli ESBL46 = assay: MIC, serial dilution method (CLSI); also: values in mg/L; format: cell-based; conditions: E. coli ESBL46, Tetracycline resistant; duplicates a/b
Outline: as §1

Escherichia coli E6 = assay: MIC, serial dilution method (CLSI); also: values in mg/L; format: cell-based; conditions: E. coli E6, ESBL; duplicates a/b
Outline: as §1

Escherichia coli E4 = assay: MIC, serial dilution method (CLSI); also: values in mg/L; format: cell-based; conditions: E. coli E4, ESBL; duplicates a/b
Outline: as §1

Escherichia coli ESBL1 = assay: MIC, serial dilution method (CLSI); also: values in mg/L; format: cell-based; conditions: E. coli ESBL1, Tetracycline resistant; duplicates a/b
Outline: as §1

Streptococcus equi = assay: MIC, serial dilution method (CLSI); format: cell-based; conditions: 24 h, read-out: MIC
Outline: as §1

Escherichia coli E38 = assay: MIC, serial dilution method (CLSI); also: values in mg/L; format: cell-based; conditions: E. coli E38, ESBL; duplicates a/b
Outline: as §1

Escherichia coli ESBL10 = assay: MIC, serial dilution method (CLSI); also: values in mg/L; format: cell-based; conditions: E. coli ESBL10, Tetracycline resistant; duplicates a/b
Outline: as §1

IPEC-J2 MDR1 cells = assay: Apical to basolateral transport across IPEC-J2 MDR1 cell monolayers; format: in vitro ADME
Method: To assess the permeability of the compounds, the apical to basolateral flux/permeability of different experimental compounds across monolayers of IPEC-J2 MDR1 cells seeded and cultured on Transwell supports was investigated.
The compounds were dissolved in ultra pure water (MilliQ) to a concentration of 1 mM and further diluted in HBSS supplemented with 0.05% BSA and 10 mM HEPES, pH 7.4 to a final concentration of 10 μM.
For transport experiments, IPEC-J2 cells were seeded onto to permeable supports (T12, Corning cci-3401) and cultured for 15-17 days. Culturemedium was changed every other day in both the apical and basolateral chamber. On the day of transport, the cells were equilibrated to ambient temperatures and the transepithelial electrical resistance (TEER) was measured across the cell monolayers. Subsequently, the cell layers were washed twice with HBSS and the TEER was measured again. The transport experiment was started by replacing the HBSS in the apical chamber with HBSS solutions of the four experimental compounds. Over a period of two hours samples of 100 μL where taken from the basolateral chamber at t=15, 30, 45, 60, 90 and 120 minutes. All samples were stored at −20° C. until analysis by means of HPLC-MS. All four compounds were tested in triplicate. After the transport study was stopped, the cell layers were washed twice with HBSS and the TEER was measured.

Campylobacter jejuni = assay: MIC and MBC determination; format: cell-based; conditions: Clinical isolate
Method: (§2) MBC-value defines the antibiotic activities by the lowest concentration of the compound needed to kill at least 99.9% of the bacteria, also known as minimum bactericidal concentration (MBC) value.
(§3) The MIC for each compound for each bacteria strain was determined by the serial dilution method following the CLSI guidelines (CLSI Clinical and Laboratory Standards Institute: Performance Standards for Antimicrobial Susceptibility Testing: […] M100-S25. Wayne, Pa., USA; 2015.) All compounds were diluted in autoclaved H2O and stored at 4° C. […] Bacterial inoculums were prepared by inoculating 9 ml of H2O with bacterial colonies from agar plate (Oxoid, Roskilde Denmark) supplemented with bovine blood to a final yield a final density of 10^8 colony forming unit (CFU)/mL using a Sensititre™ Nephelometer (Thermo Scientific, Roskilde, Denmark). These inoculums were each in diluted 1:100 in Müller Hinton (MH) broth (Sigma, Copenhagen, Denmark). From the diluted inoculums 100 μl was transferred to each well in a 96-well plate and mixed with the compound to be MIC determined. The plate was incubated for 24 hours at 37° C. (without shaking). The MIC value was determined as the lowest concentration in which no bacterial growth could be visually detected. All MIC determinations were done in duplicates. […] Since all derivatives are new, no control strains (with reference MIC values) were available.

[2] = tested on: Staphylococcus epidermidis; assay: MIC and MBC determination; format: cell-based; conditions: Multiresistant clinical isolate
Method: as §2, §3

Cutibacterium acnes = assay: MIC and MBC determination; format: cell-based; conditions: Multiresistant clinical isolate
Method: as §2, §3

[3] = Maximum Tolerated Dose (MTD) in mice; format: in vivo; conditions: for tolerated dose: mice, observed 4-6 hrs
Method: This experiment is conducted to assess in vivo toxicity of the compounds. […] The study was performed at Statens Serum Institute. The Maximum Tolerated Dose (MTD) was investigated after intravenous (iv), intraperitonalt (ip) and peroral (po) dosing ranging from 5 mg/kg to 100 mg/kg.

Mutagenicity = conditions: data not shown
Method: The compound S43 was also assessed for mutagenicity.

[4] = tested on: Staphylococcus aureus MRSA 43484; assay: Murine superficial MRSA skin infection model, topical treatment; format: in vivo; conditions: for reduction of the bacterial loads compared to vehicle treatment: topical twice daily for 3 days, day 4, Balb/C mice; for efficacy in the MRSA skin infection model: formulations at 1% and 2%, compared to vehicle
Method: This experiment is conducted to assess the effect of topical treatment of the compounds against MRSA. Compound S43 was evaluated for efficacy against Staphylococcus aureus MRSA 43484 in an murine skin infection model.
Treatment was performed twice daily for 3 days and sampling of skin biopsies was performed the day after last treatment. Treatment with Fucidic acid was included as a positive control and treatment with vehicle was included as a negative control.
48 Balb/C female mice—18-22 g—Taconic, Denmark, Staphylococcus aureus MRSA43484, Test compound A at 1 and 2% formulations, Test compound B at 2% formulation, Fucidin, 0.9% saline (sterile, SSI), 0.9% saline/Triton-x (sterile, SSI), Sterile water (SSI), 5% Horse Blood Agar plates (SSI), MRSA Brilliance agar plates, Nurofen® Junior (20 mg/ml, Novartis), Zoletil mix/Torbugesic (SSI/QC-BIO), Dermal curette—Miltex 335710.
Approximately 1 hour before inoculation, mice were treated orally with 45 μl nurofen (20 mg ibuprofen/ml corresponding to approximately […]) as pain relief. The mice were anaesthetized with 0.15 ml s.c. of Zoletil mix. The fur was removed from a 2×3-cm area on the back of each mouse by use of an electric shaver. Next, a razor was used to remove all the hair and hereafter the outer most layer of the skin was scraped off with a dermal curette to obtain a 1 cm^2 superficial skin lesion. 10 μl inoculum containing approximately 10^7 CFU was spread on the lesion. After the applied inoculum had dried, the mouse was placed in the cage and kept in a warming cabinet until fully awake.
Topical treatment of was initiated the day after inoculation, Day 1. Mice were treated twice daily (9 a.m and 3 p.m.) for three days. A volume of 50 μl was spread on the inoculated skin area.
Colony counts in the skin lesions were determined on day 1 (start of treatment) and day 4 (the day after completed treatment). The mice were sacrificed day 1 and 4 according to Table 1. The affected skin area was removed by a pair of scissors and tweezers, and collected in a tube for Dispomixer with 1 ml saline. The skin sample was homogenized in a Dispomixer. Each sample was serial diluted in saline/Triton-x and 20-μl spots were applied on MRSA Brillince agar plates. All agar plates were incubated 20-48 hrs at 35° C.

CN(C)CCCN1c2ccccc2Sc2ccc(Cl)cc21.Cl [Compound S1, 3-(2-chloro-10H-phenothiazin-10-yl)-N,N-dimethylpropan-1-amine hydrochloride, reference compound]
MIC [1]: 32 µg/mL
MIC (E. coli APEC O2): 64 µg/mL
MIC (E. faecium): 32 µg/mL
MIC (S. aureus CC398): 32 µg/mL
MIC (S. aureus USA300): 64 µg/mL
MIC (E. faecalis): 64 µg/mL
MIC (Escherichia coli E5): 32/32
MIC (Bacillus cereus): 64 µg/mL
MIC (Escherichia coli ESBL28): 32/32
MIC (Escherichia coli E24): 64/32
MIC (Listeria monocytogenes): 32 µg/mL
MIC (Escherichia coli ESBL19): 32/32
MIC (Escherichia coli ESBL37): 32/32
MIC (Salmonella enteritidis): 64 µg/mL
MIC (Escherichia coli ESBL46): 32/32
MIC (Escherichia coli E6): 32/32
MIC (Escherichia coli E4): 64/64
MIC (Escherichia coli ESBL1): 32/64
MIC (Streptococcus equi): 16 µg/mL
MIC (Escherichia coli E38): 64/32
MIC (Escherichia coli ESBL10): 64/64

CSc1ccc2c(c1)N(CCC1CCCC[N+]1(C)CCC(C)C)c1ccccc1S2.[Br-] (stereo not shown) [Compound S27, 1-isopentyl-1-methyl-2-(2-(2-(methylthio)-10H-phenothiazin-10-yl)ethyl)piperidin-1-ium bromide]
MIC [1]: 2 µg/mL
MIC (E. coli APEC O2): 128 µg/mL
MIC (E. faecium): 4 µg/mL
MIC (S. aureus CC398): 2 µg/mL
MIC (S. aureus USA300): 2 µg/mL
MIC (E. faecalis): 4 µg/mL
permeability across IPEC-J2 MDR1 cell monolayers (IPEC-J2 MDR1 cells): low
MIC (Bacillus cereus): 4 µg/mL
MIC (Listeria monocytogenes): 2 µg/mL
MIC (Salmonella enteritidis): 128 µg/mL
MIC (Streptococcus equi): 2 µg/mL

CCCCC[N+]1(C)CCCCC1CCN1c2ccccc2Sc2ccc(SC)cc21.[Br-] (stereo not shown) [Compound S28, 1-methyl-2-(2-(2-(methylthio)-10H-phenothiazin-10-yl)ethyl)-1-pentylpiperidin-1-ium bromide]
MIC [1]: 4 µg/mL
MIC (E. coli APEC O2): 64 µg/mL
MIC (E. faecium): 2 µg/mL
MIC (S. aureus CC398): 2 µg/mL
MIC (S. aureus USA300): 2 µg/mL
MIC (E. faecalis): 4 µg/mL
permeability across IPEC-J2 MDR1 cell monolayers (IPEC-J2 MDR1 cells): low
MIC (Bacillus cereus): 2 µg/mL
MIC (Listeria monocytogenes): 2 µg/mL
MIC (Salmonella enteritidis): 64 µg/mL
MIC (Streptococcus equi): 2 µg/mL

CC(C)=CCCC(C)CC[N+](C)(C)CCCN1c2ccccc2Sc2ccccc21.Cc1ccc(S(=O)(=O)[O-])cc1 (stereo not shown) [Compound S43, N-(3-(10H-phenothiazin-10-yl)propyl)-N,N,3,7-tetramethyloct-6-en-1-aminium 4-methylbenzenesulfonate]
MBC (Campylobacter jejuni): 1 µg/mL
MIC (Campylobacter jejuni): 1 µg/mL
MBC [2]: 2 µg/mL
MIC [2]: 2 µg/mL
MBC (Cutibacterium acnes): 1 µg/mL
MIC (Cutibacterium acnes): 1 µg/mL
tolerability ([3]; mice dosed twice po with 100 mg/kg): no signs of discomfort
tolerated dose ([3]; ip dosing): up to 10 mg/kg
tolerated dose ([3]; iv dosing): up to 10 mg/kg
mutagenic potential (Mutagenicity): did not show indications of mutagenic potential
MIC (S. aureus USA300): 2 µg/mL
reduction of the bacterial loads compared to vehicle treatment ([4]; 1% formulation): 3.0 log10 CFU
reduction of the bacterial loads compared to vehicle treatment ([4]; 2% formulation): 3.7 log10 CFU
efficacy in the MRSA skin infection model ([4]; 4-methylbenzenesulfonate): significant reduction of the bacterial loads
efficacy in the MRSA skin infection model ([4]; listed as 43, 4-methylbenzenesulfonate): highly effective
